The Km is the substrate concentration at which the rate is half of its maximum. For orientation: IC50 means the concentration that inhibits the measured activity by half.

Read-outs that look alike come from different tables or passages of the source.

We go through three compounds from article PMC11354674, “Genome Mining and Genetic Manipulation Reveal New Isofuranonaphthoquinones in Nocardia Species” (International Journal of Molecular Sciences, 2024).

Data set [1] has as its system T1, ThnM3.
T1 construct: methyltransferase of the tetrahydroxynaphthalene (THN) gene cluster
Description: O-methylation assay, HPLC, nonlinear Michaelis-Menten fit. To be noted: 50 mM Tris, pH 8 in methods but pH 7.5 in Figure 5 legend, 5 µg ThnM3. Format: biochemical, Nocardia sp. CS682.

Data set [2] relates to HeLa. The data set can be described thus: cells. On the set-up: species or system A549, Huh7, U87MG, HaCaT; MTT colorimetric cell growth / viability assay. To be noted: Homo sapiens, HeLa, 72 h; read-out: NOC-IBR1 IC50. Here is the method:
(§1) Lung cancer cells (A549), liver cancer cells (Huh7), cervical cancer cells (HeLa), brain cancer cells (U87MG), and a normal cell line (human keratinocyte cell line (HaCaT)) were acquired from the Korean Cell Line Bank (Seoul, Republic of Korea). Ten percent fetal bovine serum (FBS) was added to Dulbecco’s modified Eagle’s medium (DMEM) to culture the HeLa A549 cells. Similarly, Huh7 cells were grown in DMEM obtained from Corning Cellgro Manassas, VA, USA. Glioblastoma U87MG cells were cultured in a minimum essential medium (MEM) supplemented with 10% FBS. DMEM supplemented with 10% FBS, 100 µg/mL streptomycin, and 100 µg/mL benzylpenicillin was used to grow HaCaT cell lines. Each cell line was kept in an incubator with 5% CO2 that was humidified at 37 °C (Thermo Scientific, Vantaa, Finland). For the cell growth assays, various cancer cells at 2 × 10^3 cells/well were plated in 96-well culture plates. NOC-IBR1 and NOC-IBR2 were added to each well at various concentrations (200 μM, 100 μM, 50 μM, 25 μM, 12.5 μM, 6.25 μM, 3.16 μM, 1.56 μM, and 0.78 μM), and the cells were incubated for 72 h. A 3-(4,5-dimethylthiazol-2-yl)-2,5-diphenyltetrazolium bromide (MTT) colorimetric assay was used to measure cell growth (cell viability).  Figure 4 The cytotoxicity of NOC-IBR1 and NOC-IBR2 was assessed across different cell lines. Each cell line was maintained in a 5% CO2 humidified incubator at 37 °C. The cells were seeded at a density of 2 × 10^3 cells/well in 96-well culture plates for the cell growth assay. Various concentrations of the compounds (200 μM, 100 μM, 50 μM, 25 μM, 12.5 μM, 6.25 μM, 3.16 μM, 1.56 μM, and 0.78 μM) were added to each well, and the cells were incubated for 72 h. Cell growth was measured using the MTT colorimetric assay. NOC-IBR1 and NOC-IBR2 were further subjected to cytotoxicity assays against four different cancer cell lines using a colorimetric test of 3-(4,5-dimethylthiazol-2-yl)-2,5-diphenyltetrazolium bromide (MTT) (Figure 4). […] Similarly, the IC50 values of doxorubicin in the above cell lines were also calculated (Table S4). […] These findings further indicate that NOC-IBR1 and NOC-IBR2 substantially reduce the viability of A549, Huh7, HeLa, and U87MG cells in a dose-dependent manner. This is the first report on the cytotoxicity of these two compounds against cancer cell lines.

In data set [3] the test system is A549. The data set can be described thus: cells. Conditions: Homo sapiens, A549, 72 h; read-out: NOC-IBR1 IC50. On the set-up: species or system Huh7, HeLa, U87MG, HaCaT; MTT colorimetric cell growth / viability assay. The protocol: as §1
The test system of data set [4] is Huh7. Description: cells. More on the design: species or system A549, HeLa, U87MG, HaCaT; MTT colorimetric cell growth / viability assay. Conditions: Homo sapiens, Huh-7, 72 h; read-out: NOC-IBR1 IC50. Here is the method: as §1
Data set [5] relates to U87MG. The data set can be described thus: cells. More on the design: species or system A549, Huh7, HeLa, HaCaT; MTT colorimetric cell growth / viability assay. To be noted: Homo sapiens, U-87 MG, 72 h; read-out: NOC-IBR1 IC50. Here is the method:
as §1

The nature of data set [6]: in vitro. More on the design: species or system A549, Huh7, HeLa, U87MG; MTT colorimetric cell growth / viability assay. Conditions: human, hacat cells. Here is the method:
Lung cancer cells (A549), liver cancer cells (Huh7), cervical cancer cells (HeLa), brain cancer cells (U87MG), and a normal cell line (human keratinocyte cell line (HaCaT)) were acquired from the Korean Cell Line Bank (Seoul, Republic of Korea). Ten percent fetal bovine serum (FBS) was added to Dulbecco’s modified Eagle’s medium (DMEM) to culture the HeLa A549 cells. Similarly, Huh7 cells were grown in DMEM obtained from Corning Cellgro Manassas, VA, USA. Glioblastoma U87MG cells were cultured in a minimum essential medium (MEM) supplemented with 10% FBS. DMEM supplemented with 10% FBS, 100 µg/mL streptomycin, and 100 µg/mL benzylpenicillin was used to grow HaCaT cell lines. Each cell line was kept in an incubator with 5% CO2 that was humidified at 37 °C (Thermo Scientific, Vantaa, Finland). For the cell growth assays, various cancer cells at 2 × 10^3 cells/well were plated in 96-well culture plates. NOC-IBR1 and NOC-IBR2 were added to each well at various concentrations (200 μM, 100 μM, 50 μM, 25 μM, 12.5 μM, 6.25 μM, 3.16 μM, 1.56 μM, and 0.78 μM), and the cells were incubated for 72 h. […] Figure 4 The cytotoxicity of NOC-IBR1 and NOC-IBR2 was assessed across different cell lines. […] Cell growth was measured using the MTT colorimetric assay. […] Similarly, the IC50 values of doxorubicin in the above cell lines were also calculated (Table S4). […]

With `C[S+](CC[C@H](N)C(=O)O)C[C@H]1O[C@@H](n2cnc3c(N)ncnc32)[C@H](O)[C@@H]1O` (some centres unmarked) [SAM], in data set [1] (methyl donor, 100 µM NOC-IBR1 (near-saturating), read-out: Km), the Km was 39.7 ± 6.08 µM.

For `COc1cc2c(c(O)c1O)C(=O)c1c(coc1C)C2` [NOC-IBR1, 6-methoxy-7,8-dihydroxy-1-methylnaphtho [2,3-c] furan-9-one], the Km in data set [1] (2 mM SAM (saturating), read-out: apparent Km) amounted to 15.6 ± 1.75 µM. Also, the IC50 turned out to be 61.1 µM in data set [2], 200 µM in data set [3], 44.4 µM in data set [4] and 120 µM in data set [5]. In addition, the CC50 at 72 h in data set [6] (read-out: NOC-IBR1 IC50 (μM), normal cells) is greater than 200 µM.

In the case of `COc1cccc2c1C(=O)c1c(O)c3c(c(O)c1C2=O)C[C@@](O)(C(=O)CO)C[C@@H]3O[C@H]1C[C@H](N)[C@H](O)[C@H](C)O1` [Doxorubicin], the CC50 at 72 h in data set [6] (read-out: Doxorubicin IC50 (μM), normal cells) stood at 0.681 µM.
